Values after ≈ are worked out from the molar mass of the structure shown. Like-named read-outs stand apart in the source and are kept apart here. Where a SMILES comes first, the peptide text is derived from it. Bridges are numbered along the chain shown (N, C = ends). The star is where a group is joined. Palmitoyl = CCCCCCCCCCCCCCCC(=O)*
How the values were obtained:
[1] = tested on: Staphylococcus aureus ATCC 25923; conditions: values marked *: performed by the group in the previous study; ref [29]; cited from earlier work
Source text: Table 2 Antimicrobial activity of lipopeptides. | column: MIC (μg/mL) / S. aureus

[2] = tested on: Staphylococcus aureus ATCC 25923; conditions: values marked *: performed by the group in the previous study; ref [29]; cited from earlier work; remark: listed apart in the source
Source text: Table 3 Antibiofilm activity of lipopeptides. | column: MBEC (μg/mL) / S. aureus

[3] = tested on: Staphylococcus aureus ATCC 25923; assay type: cell-based
Summary of the method: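 Broth microdilution per CLSI: bacteria at 5 × 10^5 CFU/mL in MHB, 18 h, and yeasts at 2 × 10^3 CFU/mL in RPMI-1640 with 2% D-glucose, 24 h, both at 37 °C, lipopeptides 0.5–256 μg/mL. MIC is lowest concentration visibly inhibiting growth; triplicate.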

[4] = tested on: Staphylococcus aureus ATCC 25923; assay type: cell-based; remark: listed apart in the source
Summary of the method: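 Biofilms were grown 24 h at 37 °C in 96-well plates from 2.0 × 10^5 CFU/mL (fungi) or 5.0 × 10^5 CFU/mL (bacteria) inocula, washed with PBS, then exposed 24 h at 37 °C to compounds at 0.5–256 μg/mL. MBEC was taken as the lowest concentration giving ≤10 ± 0.5% resazurin reduction (A570/A600) after 1 h; triplicate.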

[5] = tested on: E. coli ML-35 (ATCC 43827); assay type: cell-based, Escherichia coli
[6] = tested on: Candida albicans ATCC 10231; test: Transmission electron microscopy (TEM); assay type: cell-based; conditions: 2 × MIC, 5.0 × 10^6 CFU/mL, 1 h at room temperature
Experimental: TEM was used to examine ultrastructural changes in the Candida albicans ATCC 10231 cells treated with selected lipopeptides (L2, C2, L4, C4) and melittin (positive control). Fungal cells (Candida albicans ATCC 10231) were incubated in RMPI-1640 overnight. The cells were centrifuged (3500 rpm, 7 min) and resuspended in fresh RMPI-1640 medium to obtain dense cell suspension (5.0 × 10^6 CFU/mL). The high cell-density culture was prepared to facilitate TEM observations. Peptides’ concentrations were 2 × MIC. Samples were incubated for 1 h at room temperature. Importantly, MIC of selected peptides (L2, C2, L4, C4, and melittin) were also determined with dense inoculum of yeasts (5.0 × 10^6 CFU/mL). After the treatment, the fungal cells were centrifuged (3500× rpm, 10 min) and washed twice with PBS. Fungal cells were fixed with 2.5% glutaraldehyde buffered at pH 6.5 with 0.1 M sodium cacodylate (Polysciences, Warrington, PA, USA) for 6 h at room temperature. Postfixation was performed with a 1% osmium tetroxide (Polysciences, Warrington, PA, USA) solution for 2 h at 4 °C. The cells were then centrifuged and resuspended in 0.1 M cacodylate buffer (pH 6.5). After re-centrifugation, cells were dehydrated with ethanol. Yeasts were embedded in Epon 812 resin (Sigma-Aldrich) at room temperature. An ultramicrotome Leica UC7 was used to prepare ultrathin sections (55 nm). […]

keratinocytes = conditions: reported in the literature; ref [13]; cited from earlier work
Source text: However, an identical hemolysis pattern is consistent only with peptides L4, C4, L7, and C7. A common feature of these compounds is the presence of arginine residue in the second and third position, which differentiates them from the rest of compounds used in this study. Overall effect of disulfide cyclization on hemolysis seems to be dependent on arginine(s) position. In general, disulfide cyclization of lipopeptides results in the reduced cytotoxicity a ...

For CCCCCCCCCCCCCCCC(=O)N[C@H]1CSSC[C@@H](C(N)=O)NC(=O)[C@H](CCCCN)NC(=O)[C@H](CCCCN)NC(=O)[C@H](CCCCN)NC1=O [C1, C16-CKKKC-NH2] (Palmitoyl-CKKKC-NH2; disulfide 1-5), the “MIC S. aureus” value [1] is listed as 8 * μg/mL and the “MBEC S. aureus” value [2] is listed as 64 * μg/mL.
For CCCCCCCCCCCCCCCC(=O)N[C@H]1CSSC[C@@H](C(N)=O)NC(=O)[C@H](CCCCN)NC(=O)[C@H](CCCCN)NC(=O)[C@H](CCCCN)NC(=O)[C@H](CCCCN)NC1=O [C2, C16-CKKKKC-NH2] (Palmitoyl-CKKKKC-NH2; disulfide 1-6), the “MIC S. aureus” value ([3]; broth microdilution (CLSI), MHB, 5 × 10^5 CFU/mL, 37 °C, 18 h, visual, triplicate) was 32 µg/mL (≈ 32.9 µM), the “MBEC S. aureus” value ([4]; 24 h biofilm on polystyrene plates, 24 h exposure at 37 °C, resazurin, triplicate) was 64 µg/mL and the “MIC against E. coli ML-35” value [5] was 8 µg/mL (≈ 8.23 µM).
In the case of CCCCCCCCCCCCCCCC(=O)N[C@H]1CSSC[C@@H](C(N)=O)NC(=O)[C@H](CCCCN)NC(=O)[C@H](CCCCN)NC(=O)[C@H](CCCCN)NC(=O)[C@H](CCCNC(=N)N)NC1=O [C3, C16-CRKKKC-NH2] (Palmitoyl-CRKKKC-NH2; disulfide 1-6), the “MIC S. aureus” value [1] is listed as 8 * μg/mL and the “MBEC S. aureus” value [2] is listed as 128 * μg/mL.
In the case of CCCCCCCCCCCCCCCC(=O)N[C@H]1CSSC[C@@H](C(N)=O)NC(=O)[C@H](CCCCN)NC(=O)[C@H](CCCCN)NC(=O)[C@H](CCCNC(=N)N)NC(=O)[C@H](CCCCN)NC1=O [C4, C16-CKRKKC-NH2] (Palmitoyl-CKRKKC-NH2; disulfide 1-6), the “MIC S. aureus” value ([3]; ATCC 25923, 18 h) is reported as 16 µg/mL (≈ 16 µM), the “MBEC S. aureus” value ([4]; ATCC 25923, 24 h) is reported as 64 µg/mL and the “MIC against E. coli ML-35” value [5] is reported as 8 µg/mL (≈ 8 µM). The “ultrastructural changes in TEM micrographs” value [6] was “numerous vesicles are visible inside and outside the cell”.
In the case of CCCCCCCCCCCCCCCC(=O)N[C@H]1CSSC[C@@H](C(N)=O)NC(=O)[C@H](CCCCN)NC(=O)[C@H](CCCNC(=N)N)NC(=O)[C@H](CCCCN)NC(=O)[C@H](CCCCN)NC1=O [C5, C16-CKKRKC-NH2] (Palmitoyl-CKKRKC-NH2; disulfide 1-6), the “MIC S. aureus” value [1] is listed as 8 * μg/mL and the “MBEC S. aureus” value [2] is listed as 128 * μg/mL.
For CCCCCCCCCCCCCCCC(=O)N[C@H]1CSSC[C@@H](C(N)=O)NC(=O)[C@H](CCCNC(=N)N)NC(=O)[C@H](CCCCN)NC(=O)[C@H](CCCCN)NC(=O)[C@H](CCCCN)NC1=O [C6, C16-CKKKRC-NH2] (Palmitoyl-CKKKRC-NH2; disulfide 1-6), the “MIC S. aureus” value [1] is given as 16 * μg/mL and the “MBEC S. aureus” value [2] is given as 64 * μg/mL.
In the case of CCCCCCCCCCCCCCCC(=O)N[C@H]1CSSC[C@@H](C(N)=O)NC(=O)[C@H](CCCCN)NC(=O)[C@H](CCCCN)NC(=O)[C@H](CCCNC(=N)N)NC(=O)[C@H](CCCNC(=N)N)NC1=O [C7, C16-CRRKKC-NH2] (Palmitoyl-CRRKKC-NH2; disulfide 1-6), the “MIC S. aureus” value ([3]; ATCC 25923, 18 h) is reported as 8 µg/mL (≈ 7.78 µM) and the “MBEC S. aureus” value ([4]; ATCC 25923, 24 h) is reported as 128 µg/mL.
For CCCCCCCCCCCCCCCC(=O)N[C@@H](CCCCN)C(=O)N[C@@H](CCCCN)C(=O)N[C@@H](CCCCN)C(N)=O [L1, C16-KKK-NH2], the “MIC S. aureus” value [1] is listed as 32 * μg/mL, the “MBEC S. aureus” value [2] is listed as 64 * μg/mL and the toxicity against keratinocytes (keratinocytes) is listed as 3.2 µg/mL.
In the case of CCCCCCCCCCCCCCCC(=O)N[C@@H](CCCCN)C(=O)N[C@@H](CCCCN)C(=O)N[C@@H](CCCCN)C(=O)N[C@@H](CCCCN)C(N)=O [L2, C16-KKKK-NH2] (Palmitoyl-KKKK-NH2), the “MIC S. aureus” value ([3]; ATCC 25923, 18 h) is reported as 16 µg/mL (≈ 20.8 µM), the “MBEC S. aureus” value ([4]; ATCC 25923, 24 h) is reported as 64 µg/mL and the “MIC against E. coli ML-35” value [5] is reported as 4 µg/mL (≈ 5.21 µM).
For CCCCCCCCCCCCCCCC(=O)N[C@@H](CCCNC(=N)N)C(=O)N[C@@H](CCCCN)C(=O)N[C@@H](CCCCN)C(=O)N[C@@H](CCCCN)C(N)=O [L3, C16-RKKK-NH2] (Palmitoyl-RKKK-NH2), the “MIC S. aureus” value [1] is given as 16 * μg/mL and the “MBEC S. aureus” value [2] is given as 64 * μg/mL.
With CCCCCCCCCCCCCCCC(=O)N[C@@H](CCCCN)C(=O)N[C@@H](CCCNC(=N)N)C(=O)N[C@@H](CCCCN)C(=O)N[C@@H](CCCCN)C(N)=O [L4, C16-KRKK-NH2] (Palmitoyl-KRKK-NH2) the “MIC S. aureus” value ([3]; ATCC 25923, 18 h) was 8 µg/mL (≈ 10 µM), the “MBEC S. aureus” value ([4]; ATCC 25923, 24 h) was 64 µg/mL and the “MIC against E. coli ML-35” value [5] was 4 µg/mL (≈ 5.02 µM).
In the case of CCCCCCCCCCCCCCCC(=O)N[C@@H](CCCCN)C(=O)N[C@@H](CCCCN)C(=O)N[C@@H](CCCNC(=N)N)C(=O)N[C@@H](CCCCN)C(N)=O [L5, C16-KKRK-NH2] (Palmitoyl-KKRK-NH2), the “MIC S. aureus” value [1] is listed as 16 * μg/mL and the “MBEC S. aureus” value [2] is listed as 32 * μg/mL.
In the case of CCCCCCCCCCCCCCCC(=O)N[C@@H](CCCCN)C(=O)N[C@@H](CCCCN)C(=O)N[C@@H](CCCCN)C(=O)N[C@@H](CCCNC(=N)N)C(N)=O [L6, C16-KKKR-NH2] (Palmitoyl-KKKR-NH2), the “MIC S. aureus” value [1] is given as 16 * μg/mL and the “MBEC S. aureus” value [2] is given as 32 * μg/mL.
In the case of CCCCCCCCCCCCCCCC(=O)N[C@@H](CCCNC(=N)N)C(=O)N[C@@H](CCCNC(=N)N)C(=O)N[C@@H](CCCCN)C(=O)N[C@@H](CCCCN)C(N)=O [L7, C16-RRKK-NH2] (Palmitoyl-RRKK-NH2), the “MIC S. aureus” value ([3]; ATCC 25923, 18 h) is reported as 4 µg/mL (≈ 4.85 µM) and the “MBEC S. aureus” value ([4]; ATCC 25923, 24 h) is reported as 128 µg/mL.

— paper PMC7582905, “Effect of Disulfide Cyclization of Ultrashort Cationic Lipopeptides on Antimicrobial Activity and Cytotoxicity” (International Journal of Molecular Sciences, 2020)
